The target of the experiment is T1, Zcchc11 enzyme (Homo sapiens, UniProt Q5TAX3).
T1 construct: made in house; host or cells: HEK293 cells (Zcchc11); E. coli Rosetta II (LIN28A)
T1 sequence (Q5TAX3 212-1420): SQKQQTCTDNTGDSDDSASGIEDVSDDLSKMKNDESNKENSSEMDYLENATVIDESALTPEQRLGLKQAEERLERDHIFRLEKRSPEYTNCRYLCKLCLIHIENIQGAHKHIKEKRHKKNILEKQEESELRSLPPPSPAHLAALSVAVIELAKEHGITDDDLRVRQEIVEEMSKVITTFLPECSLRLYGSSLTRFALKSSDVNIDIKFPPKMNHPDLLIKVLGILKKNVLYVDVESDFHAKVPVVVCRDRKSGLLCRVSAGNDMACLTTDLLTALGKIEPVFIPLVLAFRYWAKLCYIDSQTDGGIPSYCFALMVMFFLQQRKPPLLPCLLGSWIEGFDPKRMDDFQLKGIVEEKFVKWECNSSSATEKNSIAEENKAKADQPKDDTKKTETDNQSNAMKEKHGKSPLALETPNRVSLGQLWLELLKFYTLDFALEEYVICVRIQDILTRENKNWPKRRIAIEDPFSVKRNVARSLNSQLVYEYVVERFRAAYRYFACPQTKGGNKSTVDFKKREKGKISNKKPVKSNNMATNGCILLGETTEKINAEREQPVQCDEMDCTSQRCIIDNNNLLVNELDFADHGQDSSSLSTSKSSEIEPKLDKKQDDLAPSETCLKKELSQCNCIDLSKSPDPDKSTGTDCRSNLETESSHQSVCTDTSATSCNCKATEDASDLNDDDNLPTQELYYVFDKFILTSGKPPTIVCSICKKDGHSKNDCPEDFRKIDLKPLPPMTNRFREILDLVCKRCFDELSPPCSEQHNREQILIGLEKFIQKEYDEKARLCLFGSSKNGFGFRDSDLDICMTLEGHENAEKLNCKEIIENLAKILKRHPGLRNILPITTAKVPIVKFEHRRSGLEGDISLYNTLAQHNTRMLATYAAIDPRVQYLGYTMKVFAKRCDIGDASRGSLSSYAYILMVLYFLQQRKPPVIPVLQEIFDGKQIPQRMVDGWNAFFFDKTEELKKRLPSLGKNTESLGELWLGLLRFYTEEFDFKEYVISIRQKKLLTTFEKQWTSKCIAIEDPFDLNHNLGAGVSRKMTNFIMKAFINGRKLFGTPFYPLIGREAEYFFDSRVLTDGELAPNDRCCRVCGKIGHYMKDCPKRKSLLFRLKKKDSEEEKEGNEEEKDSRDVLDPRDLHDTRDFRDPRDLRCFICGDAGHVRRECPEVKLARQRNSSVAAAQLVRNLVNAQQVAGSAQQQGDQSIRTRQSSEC
Nature of the experiment: TUTase assay (Zcchc11 assay, Lin28a-dependent polyuridylation of pre-let-7). The experiment is classed as biochemical. Particulars: Lin28a-dependent Zcchc11 (Z11) TUTase activity; read-out: Potency Lin28a-dep Z11 IC50. The procedure, abridged: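 Readout: time-dependent quench of 5′-fluorescein pre-let-7 (2 nM) as 3′-rhodamine A20 probe anneals to poly(U) tails. Enzyme 0.2 nM Zcchc11 (res. 212-1420), LIN28A 10 nM, UTP 5 uM; pH 7.3 HEPES, 150 mM KCl, 5 mM MgCl2, RT. 4-parameter IC50; 100% = DMSO, 0% = no UTP.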

Molecules are shown by their SMILES. Where only a bound is given, the exact number is not on record here.

One may read the IC50 as the concentration at which inhibition is half-maximal. On to `O=C(O)c1cn(-c2cnccn2)c2cc(N3C(=O)CC[C@@H]3COc3ccccn3)c(Cl)cc2c1=O` [Compound 286, (R)-6-chloro-4-oxo-7-(2-oxo-5-((pyridin-2-yloxy)methyl)pyrrolidin-1-yl)-1-(pyrazin-2-yl)-1,4-dihydro-quinoline-3-carboxylic acid], for which the half-maximal inhibitory concentration (IC50) was more than 50 µM.
As for `O=C(O)c1cn(-c2ccc(N3CCC3)nc2)c2cc(N3C(=O)CC[C@@H]3COc3ccccn3)c(Cl)cc2c1=O` [Compound 287, (R)-1-(6-(azetidin-1-yl)pyridin-3-yl)-6-chloro-4-oxo-7-(2-oxo-5-((pyridin-2-yloxy)methyl)pyrrolidin-1-yl)-1,4-dihydro-quinoline-3-carboxylic acid], the figure is 10 to 50 µM; as for `CC1(n2cc(C(=O)O)c(=O)c3cc(Cl)c(N4C(=O)CC[C@H]4COc4ccccn4)cc32)CC1` [Compound 288, (S)-6-chloro-1-(1-methylcyclo-propyl)-4-oxo-7-(2-oxo-5-((pyridin-2-yloxy)methyl)pyrrolidin-1-yl)-1,4-dihydro-quinoline-3-carboxylic acid], more than 50 µM.
Turning to `O=C(O)c1cn(-c2ccc(N3CCC3)nc2)c2cc(N3CCC[C@@H]3COc3ncccc3F)c(Cl)cc2c1=O` [Compound 289, (R)-1-(6-(azetidin-1-yl)pyridin-3-yl)-6-chloro-7-(2-(((3-fluoropyridin-2-yl)oxy)methyl)pyrrolidin-1-yl)-4-oxo-1,4-dihydro-quinoline-3-carboxylic acid], the IC50 is not above 1 µM.
On to `Cc1cccnc1OC[C@H]1CCCN1c1cc2c(cc1F)c(=O)c(C(=O)O)cn2-c1cnn(C)c1` [Compound 291, (R)-6-fluoro-1-(1-methyl-1H-pyrazol-4-yl)-7-(2-(((3-methylpyridin-2-yl)oxy)methyl)pyrrolidin-1-yl)-4-oxo-1,4-dihydro-quinoline-3-carboxylic acid], for which the IC50 was not above 1 µM.
With `CN(C)C(=O)NC[C@H]1CCCN1c1cc2c(cc1Cl)c(=O)c(C(=O)O)cn2-c1ccc(N2CC(N(C)C)C2)nc1` [Compound 292, (R)-6-chloro-1-(6-(3-(dimethyl-amino)azetidin-1-yl)pyridin-3-yl)-7-(2-((3,3-dimethyl-ureido)methyl)pyrrolidin-1-yl)-4-oxo-1,4-dihydro-quinoline-3-carboxylic acid] the figure was not above 1 µM; with `CN(C)C1CN(c2ccc(-n3cc(C(=O)O)c(=O)c4cc(C#N)c(N5C[C@@H]6C[C@@H]6C5COc5ncccc5F)cc43)cn2)C1` (stereo partly drawn) [Compound 293, 6-cyano-1-(6-(3-(dimethyl-amino)azetidin-1-yl)pyridin-3-yl)-7-((1S,5R)-2-(((3-fluoropyridin-2-yl)oxy)methyl)-3-azabicyclo [3.1.0]hexan-3-yl)-4-oxo-1,4-dihydro-quinoline-3-carboxylic acid], not above 1 µM; with `COc1ccc(Cl)c(OC[C@H]2CCCN2c2cc3c(cc2Cl)c(=O)c(C(=O)O)cn3-c2ccc(N)nc2)n1` [Compound 294, (R)-1-(6-aminopyridin-3-yl)-6-chloro-7-(2-(((3-chloro-6-methoxy-pyridin-2-yl)oxy)methyl)pyrrolidin-1-yl)-4-oxo-1,4-dihydro-quinoline-3-carboxylic acid], not above 1 µM.
As for `CN(C)C1CN(c2ccc(-n3cc(C(=O)O)c(=O)c4cc(Cl)c(N5CCCC5)cc43)cn2)C1` [Compound 295, C6-chloro-1-(6-(3-(dimethyl-amino)azetidin-1-yl)pyridin-3-yl)-4-oxo-7-(pyrrolidin-1-yl)-1,4-dihydro-quinoline-3-carboxylic acid], the IC50 lay within 1 to 10 µM.
Turning to `CC1C[C@H](COc2ncccc2Cl)N(c2cc3c(cc2Cl)c(=O)c(C(=O)O)cn3-c2ccc(N3CC(N(C)C)C3)nc2)C1` (stereo partly drawn) [Compound 296, 6-chloro-7-((2R)-2-(((3-chloropyridin-2-yl)oxy)methyl)-4-methyl-pyrrolidin-1-yl)-1-(6-(3-(dimethyl-amino)azetidin-1-yl)pyridin-3-yl)-4-oxo-1,4-dihydro-quinoline-3-carboxylic acid], the IC50 is not above 1 µM.
With `Cc1cc2c(=O)c(C(=O)O)cn(-c3ccnc(N)c3)c2cc1N1CCC[C@@H]1COc1ncccc1Cl` [Compound 297, (R)-1-(2-aminopyridin-4-yl)-7-(2-(((3-chloropyridin-2-yl)oxy)methyl)pyrrolidin-1-yl)-6-methyl-4-oxo-1,4-dihydro-quinoline-3-carboxylic acid] the figure was not above 1 µM; with `Cc1cc2c(=O)c(C(=O)O)cn(-c3ccc(N4CC(N(C)C)C4)nc3)c2cc1N1C(=O)CC1COc1ccccn1` (centres unmarked) [Compound 298, 1-(6-(3-(dimethyl-amino)azetidin-1-yl)pyridin-3-yl)-6-methyl-4-oxo-7-(2-oxo-4-((pyridin-2-yloxy)methyl)azetidin-1-yl)-1,4-dihydro-quinoline-3-carboxylic acid], 10 to 50 µM; with `COc1ccc(Cl)c(OC[C@H]2CCCN2c2cc3c(cc2Cl)c(=O)c(C(=O)O)cn3-c2ccc(N3CC(N(C)C)C3)nc2)n1` [Compound 299, (R)-6-chloro-7-(2-(((3-chloro-6-methoxy-pyridin-2-yl)oxy)methyl)pyrrolidin-1-yl)-1-(6-(3-(dimethyl-amino)azetidin-1-yl)pyridin-3-yl)-4-oxo-1,4-dihydro-quinoline-3-carboxylic acid], not above 1 µM.
As for `O=C(O)c1cn2c3cc(c(Cl)cc3c1=O)N1CCC[C@@H]1COc1nc(ccc1Cl)OCCCNc1ccc-2cn1` [Compound 300, (R)-26,63-dichloro-24-oxo-21,24-dihydro-5,7-dioxa-11-aza-2(1,7)-quinolina-1(5,2),6(2, 6)-dipyridina-3(1,2)-pyrrolidina cyclo-undecaphane-23-carboxylic acid], the figure is not above 1 µM; as for `CN(C)C1CN(c2ccc(-n3cc(C(=O)O)c(=O)c4cc(Cl)c(N5CC(F)(F)C[C@@H]5COc5ncccc5Cl)nc43)cn2)C1` [Compound 301, (R)-6-chloro-7-(2-(((3-chloropyridin-2-yl)oxy)methyl)-4,4-difluoro-pyrrolidin-1-yl)-1-(6-(3-(dimethyl-amino)azetidin-1-yl)pyridin-3-yl)-4-oxo-1,4-dihydro-1,8-naphthyridine-3-carboxylic acid], not above 1 µM.
With `COCCN(C)C1CN(c2ccc(-n3cc(C(=O)O)c(=O)c4cc(F)c(N5CCC[C@@H]5COc5nc(OC)ccc5Cl)cc43)cn2)C1` [Compound 302, (R)-7-(2-(((3-chloro-6-methoxy-pyridin-2-yl)oxy)methyl)pyrrolidin-1-yl)-6-fluoro-1-(6-(3-((2-methoxyethyl) (methyl)amino)azetidin-1-yl)pyridin-3-yl)-4-oxo-1,4-dihydro-quinoline-3-carboxylic acid] the figure was not above 1 µM; with `CN(C)C1CN(c2ncc(-n3cc(C(=O)O)c(=O)c4cc(Cl)c(N5CC(c6cccnc6)C[C@@H]5COc5ncccc5Cl)cc43)cn2)C1` (stereo partly drawn) [Compound 303, 6-chloro-7-((2R)-2-(((3-chloropyridin-2-yl)oxy)methyl)-4-(pyridin-3-yl)pyrrolidin-1-yl)-1-(2-(3-(dimethyl-amino)azetidin-1-yl)pyrimidin-5-yl)-4-oxo-1,4-dihydro-quinoline-3-carboxylic acid], not above 1 µM.

Values taken from patent US12662491B2 (Redona Therapeutics, Inc., priority 2020, dated 2026).
